Key:
[1] = target: T1, Therminator DNA polymerase (Thermococcus sp., UniProt Q56366, A485L/D141A/E143A); test: Single nucleotide incorporation by Therminator DNA polymerase; format: biochemical, (9° N-7) Thermococcus sp.
T1 construct: purchased Westburg (NEB)
Method: (§1) In the case of Therminator DNA polymerase, the enzyme was obtained from Westburg (NEB) (2 U/μL) and the reactions were carried out in a 10× Thermopol reaction buffer containing 20 mM TRIS.HCl, 10 mM KCl, 2 mM MgSO4, 0.1% Triton X-100, pH 8.8. The final concentration of the Therminator DNA pol in the reaction mixture was 8.33×10^−4 U/μL. The polymerase reaction involving Therminator DNA polymerase or any other thermostable polymerase (Vent (exo^−), Taq DNA polymerase) was carried out in a similar way as the HIV RT reaction with some modifications. The dNTP solutions and the primer/template/DNA polymerase mixture solutions were topped with mineral oil (30-60 μL) and pre-incubated at 70° C. for 2 minutes. The polymerase reactions were performed at 70° C. as well.

[2] = target: T1, Therminator DNA polymerase; test: Primer extension by Therminator DNA polymerase (P1/T3, P1/T5); format: biochemical, (9° N-7) Thermococcus sp.
Method: (§2) Primer extension study with HIV RT and Therminator DNA polymerase was performed in a fashion similar to the single nucleotide incorporation experiments. Two sets of primer/template complexes were used: P1/T3 and P1/T5.
as §1

[3] = target: Vent (exo−) DNA polymerase (Thermococcus litoralis, UniProt P30317, D141A/DEL1082-1471/DEL495-1032/E143A); test: Single nucleotide incorporation by Vent (exo−) DNA polymerase; format: biochemical
Method: (§3) Reaction conditions: Primer (P1) was 5′-labeled with ^33P followed by annealing to a template T1; 125 nM primer/template (P1/T1), [Taq]=0.005 U/μL, [Vent]=0.005 U/μL, [KF]=0.05 U/μL; time intervals: 5, 15, 30, 60, 90 and 120 minutes.
as §1

Taq DNA polymerase = Taq DNA polymerase (Thermus aquaticus, UniProt P19821); test: Single nucleotide incorporation by Taq DNA polymerase; format: biochemical
Method: as §3, §1

HIV RT = target: T2, HIV RT (Human immunodeficiency virus type 1 group M subtype B, UniProt P03366); test: Primer extension by HIV RT (P1/T3, P1/T5); format: biochemical, HIV-1; conditions: T3 template
T2 construct: HIV RT polymerase was purchased from GE Healthcare; purchased GE Healthcare (Amersham Bioscience)
Method: (§4) A typical single nucleotide incorporation and primer extension assays using HIV RT polymerase was carried out similar to one described in the literature. HIV RT polymerase was purchased from GE Healthcare and was supplied as either 12 or 30 U/μL stock solution. The final concentration of HIV RT in a reaction mixture was 0.03-0.003 U/μL. A primer/template duplex mixture was prepared by combining appropriate amounts of a 5′-^33P-labeled primer (P1) and a template in 1:2 molar ratio to provide a 4× solution with 0.5 μM primer concentration. The polymerase reactions were carried out in a 5×RT buffer containing 250 mM TRIS.HCL, 250 mM KCl, 50 mM MgCl2, 2.5 mM spermidine, 50 mM DTT, pH 8.3. For the single nucleotide incorporation assay, a P1/T1 primer-template pair was used whereas the primer extension study was performed with P1/T3 and P1/T5 primer-template pairs.
as §2

KF (exo−) DNA polymerase = target: T3, KF (exo−) DNA polymerase (Escherichia coli, UniProt P00582, D355A/E357A); test: Single nucleotide incorporation by KF (exo−) DNA polymerase; format: biochemical; conditions: 60 minutes
T3 construct: Klenow Fragment (KF) (exo^−) DNA polymerase
Method: as §3

[4] = target: T4, HIV reverse transcriptase (Human immunodeficiency virus type 1 group M subtype B, UniProt P03366); test: Gel-based single-nucleotide-incorporation and control assays with HIV RT (Example 4); format: biochemical, HIV-1; conditions: P1/T2; 9 incorporated first (two hours), then compound 1 added, two more hours
T4 construct: performed for the enzyme HIV reverse transcriptase (GE Healthcare, 30 U/4 stock solution); purchased GE Healthcare

[5] = target: T5, HIV reverse transcriptase (HIV RT) (Human immunodeficiency virus type 1 group M subtype B, UniProt P03366); test: Single nucleotide incorporation by HIV RT, gel-based, P1/T1 (Examples 2-3); format: biochemical, HIV-1
T5 construct: HIV RT polymerase was purchased from GE Healthcare; purchased GE Healthcare (Amersham Bioscience)
Method: as §4
Briefly, a mixture containing 5 μL of the 4× primer/DNA duplex solution and 5 μL of 4× polymerase solution was pre-incubated at 37° C. for 2 minutes to ensure formation a DNA polymerase/DNA duplex complex. Simultaneously, 2× solutions of dNTP to provide final concentrations of 100 μM, 200 μM, 500 μM and 1 mM were also pre-incubated at 37° C. for 2 minutes as well. The polymerase reaction in a total volume of 20 μL was initiated by addition of 10 μL of the 2× dNTP solution to the DNA polymerase/DNA duplex mixture. The reactions were run at 37° C. and aliquots (2.5 μL) were removed at specified time points and mixed with 10 μL of a quenching buffer containing 80% formamide, 2 mM EDTA, 1×TBE. Quenched reactions were analyzed by loading 2 μL of a reaction sample onto a 20% denaturing polyacrylamide:gel (19:1 acrylamide:bisacrylamide, 7M urea, 0.4 mm×30 cm×40 cm) made in 1×TBE buffer (90 mM Tris-borate, 2 mM EDTA, pH 8.3). The gel was pre-equilibrated for 2 hours before loading and the reactions were run along with a tracking dye marker containing bromophenol blue (BB) and xylene cyanol (XC) until the BB dye had run ⅔ of the total gel length. For visualization, gels were scanned using a Cyclone Phosphoroimager.

T1 sequence (Q56366 whole entry D141A/E143A/A485L): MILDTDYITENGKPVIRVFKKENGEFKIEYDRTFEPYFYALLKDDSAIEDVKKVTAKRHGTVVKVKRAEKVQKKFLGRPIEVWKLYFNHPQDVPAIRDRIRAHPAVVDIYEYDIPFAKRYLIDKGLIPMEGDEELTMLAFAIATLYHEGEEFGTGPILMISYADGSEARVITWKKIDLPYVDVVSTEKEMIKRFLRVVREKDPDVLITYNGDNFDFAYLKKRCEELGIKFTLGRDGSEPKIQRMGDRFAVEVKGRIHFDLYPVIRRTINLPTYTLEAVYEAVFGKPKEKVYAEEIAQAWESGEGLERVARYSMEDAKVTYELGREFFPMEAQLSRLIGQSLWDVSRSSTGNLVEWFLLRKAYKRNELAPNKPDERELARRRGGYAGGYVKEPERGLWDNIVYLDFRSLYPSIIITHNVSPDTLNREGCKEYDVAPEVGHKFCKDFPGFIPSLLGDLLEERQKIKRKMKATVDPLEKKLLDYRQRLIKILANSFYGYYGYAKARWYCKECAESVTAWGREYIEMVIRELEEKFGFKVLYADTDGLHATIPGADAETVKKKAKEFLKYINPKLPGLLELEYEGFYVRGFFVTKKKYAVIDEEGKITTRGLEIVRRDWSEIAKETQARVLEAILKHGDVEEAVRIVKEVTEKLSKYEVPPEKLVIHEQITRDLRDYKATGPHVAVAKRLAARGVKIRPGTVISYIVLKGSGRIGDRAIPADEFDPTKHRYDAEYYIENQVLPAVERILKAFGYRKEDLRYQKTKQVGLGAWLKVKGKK
Taq DNA polymerase, sequence (P19821 whole entry): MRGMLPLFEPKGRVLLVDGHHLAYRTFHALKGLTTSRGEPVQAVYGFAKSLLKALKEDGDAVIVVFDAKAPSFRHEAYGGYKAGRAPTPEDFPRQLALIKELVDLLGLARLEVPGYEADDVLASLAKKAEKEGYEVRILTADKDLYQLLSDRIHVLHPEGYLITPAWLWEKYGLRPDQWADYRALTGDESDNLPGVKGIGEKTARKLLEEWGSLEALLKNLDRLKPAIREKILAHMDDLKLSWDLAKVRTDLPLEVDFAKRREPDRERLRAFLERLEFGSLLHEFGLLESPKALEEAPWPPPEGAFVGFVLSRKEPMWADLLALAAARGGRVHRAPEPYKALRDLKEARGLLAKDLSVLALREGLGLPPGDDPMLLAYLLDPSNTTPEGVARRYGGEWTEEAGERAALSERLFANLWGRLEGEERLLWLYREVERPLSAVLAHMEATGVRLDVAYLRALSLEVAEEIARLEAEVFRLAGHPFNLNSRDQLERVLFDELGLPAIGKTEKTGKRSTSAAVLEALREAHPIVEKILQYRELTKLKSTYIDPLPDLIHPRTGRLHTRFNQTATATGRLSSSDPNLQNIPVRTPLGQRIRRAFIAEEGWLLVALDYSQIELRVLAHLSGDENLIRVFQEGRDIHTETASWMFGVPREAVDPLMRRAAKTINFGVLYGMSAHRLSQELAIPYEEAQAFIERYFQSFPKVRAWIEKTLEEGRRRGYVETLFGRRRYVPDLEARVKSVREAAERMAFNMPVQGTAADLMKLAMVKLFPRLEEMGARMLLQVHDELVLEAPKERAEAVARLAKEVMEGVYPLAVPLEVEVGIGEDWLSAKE
T3 sequence (P00582 324-928 D355A/E357A): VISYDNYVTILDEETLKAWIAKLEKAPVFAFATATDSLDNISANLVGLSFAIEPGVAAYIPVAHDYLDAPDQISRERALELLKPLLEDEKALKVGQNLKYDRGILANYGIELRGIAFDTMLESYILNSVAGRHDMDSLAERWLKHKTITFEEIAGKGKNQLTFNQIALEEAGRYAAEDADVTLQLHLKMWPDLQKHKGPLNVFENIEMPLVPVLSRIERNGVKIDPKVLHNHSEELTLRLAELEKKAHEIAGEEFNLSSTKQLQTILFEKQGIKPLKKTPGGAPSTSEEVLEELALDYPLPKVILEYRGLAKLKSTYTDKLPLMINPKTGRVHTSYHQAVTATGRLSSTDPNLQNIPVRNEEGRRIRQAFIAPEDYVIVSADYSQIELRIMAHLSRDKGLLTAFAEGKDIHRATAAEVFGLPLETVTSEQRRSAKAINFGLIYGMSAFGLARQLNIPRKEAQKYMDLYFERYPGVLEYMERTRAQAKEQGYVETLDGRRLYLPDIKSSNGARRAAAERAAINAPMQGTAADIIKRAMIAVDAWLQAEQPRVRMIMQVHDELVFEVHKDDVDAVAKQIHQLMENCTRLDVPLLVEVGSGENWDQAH
Vent (exo−) DNA polymerase, sequence (P30317 other isoform, or with tags, fused parts or gaps D141A/E143A/DEL495-1032/DEL1082-1471): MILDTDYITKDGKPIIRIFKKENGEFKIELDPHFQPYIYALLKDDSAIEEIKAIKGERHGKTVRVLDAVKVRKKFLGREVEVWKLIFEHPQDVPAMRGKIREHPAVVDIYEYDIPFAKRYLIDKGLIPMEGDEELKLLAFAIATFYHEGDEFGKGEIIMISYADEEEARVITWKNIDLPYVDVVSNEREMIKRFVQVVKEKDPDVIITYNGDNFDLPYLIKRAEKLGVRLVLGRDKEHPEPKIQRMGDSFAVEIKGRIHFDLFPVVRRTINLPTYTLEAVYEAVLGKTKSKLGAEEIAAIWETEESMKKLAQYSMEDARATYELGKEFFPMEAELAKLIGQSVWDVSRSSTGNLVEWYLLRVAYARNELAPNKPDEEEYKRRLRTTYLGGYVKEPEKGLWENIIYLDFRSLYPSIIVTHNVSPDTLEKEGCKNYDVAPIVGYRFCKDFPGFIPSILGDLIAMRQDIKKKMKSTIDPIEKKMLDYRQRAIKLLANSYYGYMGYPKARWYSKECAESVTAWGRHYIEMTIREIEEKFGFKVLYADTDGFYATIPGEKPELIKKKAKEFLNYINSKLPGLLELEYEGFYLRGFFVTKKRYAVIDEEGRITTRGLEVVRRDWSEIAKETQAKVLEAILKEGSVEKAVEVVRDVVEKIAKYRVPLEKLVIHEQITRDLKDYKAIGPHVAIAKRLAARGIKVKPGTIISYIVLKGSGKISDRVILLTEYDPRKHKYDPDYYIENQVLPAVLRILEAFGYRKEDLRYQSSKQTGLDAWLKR

Substance: 2′-deoxy-adenosine-5′-aspartyl-phosphoramidate [Compound 1]
- primer extension ([1]; 60 min, 500 μM nucleoside concentration): 25.2%
- incorporation as Therminator DNA polymerase substrate ([1]; single nucleotide incorporation, P1/T1): act effectively as alternative substrates
- primer extension ([2]; T3 template): successfully incorporated
- number of adenine residues incorporated ([2]; T5 template, overhang of seven thymidine residues): up to five adenine residues
- insertion into a growing primer strand [3]: failed to insert
- insertion into a growing primer strand (Taq DNA polymerase): failed to insert
- primer extension product (HIV RT): extend a primer with three adenine nucleobases (n+3 product)
- (n+3) product (HIV RT; 60 minutes, 500 μM substrate): 5.2%
- n+2 product (HIV RT; 60 minutes, 500 μM substrate): 56.3%
- conversion of the primer strand (KF (exo−) DNA polymerase): 32.5%
- n+1 product [4]: 20%
- n+2 product [4]: 80%
- conversion to a n+1 strand ([5]; 500 μM nucleotide concentration, 60 min, P1/T1): 90%
- incorporation ([5]; substrate concentration decreased 10 fold (from 500 μM)): 24.1%
